Assay results as given in patent publication US12152017B2, “Ketoamide compound and preparation method, pharmaceutical composition, and use thereof” (Shanghai Institute of Materia Medica, Chinese Academy of …, priority 2018, dated 2024).
Where “and” joins values, the source holds several entries; their conditions need not be identical. Equal entries are not always repeated. Where two headings read alike, the source gives them in different places.

Legend:
[1] = test system: MERS-CoV pseudovirus; assay: microbe, parasite or virus in culture; format: cell-based; conditions: Middle East respiratory syndrome-related coronavirus, Huh-7; 100 nM; read-out: viral inhibitory effect, MERS-CoV pseudovirus
[2] = In vivo safety: body weight of mice during 7 days of intraperitoneal administration; set-up: species or system Balb/c mice; conditions: 100 mg/kg i.p. once a day for 7 consecutive days
Procedure: Next, we further evaluated the safety of compound A13 in mice. The mice in the drug group (100 mg/kg) and the DMSO control group were administered intraperitoneally, once a day, for 7 consecutive days, and then the growth status and weight changes of the mice in each group were observed.

[3] = test system: HCoV-OC43 live virus
[4] = test system: VSV-G pseudovirus; format: cell-based
[5] = test system: SARS-CoV pseudovirus; assay: microbe, parasite or virus in culture; format: cell-based; conditions: Severe acute respiratory syndrome coronavirus; 100 nM; read-out: viral inhibitory effect, SARS-CoV pseudovirus
[6] = in vitro; conditions: human
[7] = test system: HCoV-229E pseudovirus; assay: microbe, parasite or virus in culture; format: cell-based; conditions: Human coronavirus 229E, read-out: viral inhibitory effect, HCoV-229E pseudovirus
[8] = test system: Huh-7 cells
[9] = Pharmacokinetic study in CD-1 mice (gavage, intravenous, intraperitoneal); format: in vivo; conditions: for bioavailability: read-out: F (bioavailability)
Procedure: Nine CD-1 mice, male, weighing 18-22 g, were randomly divided into 3 groups with 3 mice in each group. The test compounds were administered by gavage, intravenously and intraperitoneally according to the following schemes.
Before the test, they were fasted for 12 hours and were allowed to drink water freely, and were fed uniformly 2 h after administration.
There were 3 animals at each time point.
The solution for gavage administration was formulated with DMSO/0.5% HPMC (5/95, v/v) into the final concentration. Intravenous and intraperitoneal administration were formulated with DMSO/PEG300/EtOH/NaCl (5/40/5/50, v/v/v). Retention samples of the dosing solution (50 μL of the drug solution was taken and mixed well with 50 μL of DMSO before and after the administration) for testing.
The drug was administered according to the above dosage, the time of administration were recorded, and 20 μL of blood was collected from the mouse femoral plexus at the above set time point and placed in a heparinized test tube and centrifuged immediately at 11000 rpm for 5 min. 10 μL of plasma was immediately and accurately drawn into a centrifuge tube pre-filled with 100 μL of PK-IS solution (prepared with methanol:acetonitrile (1:1, v/v)), mixed well, and frozen to store at −20° C. for testing.

[10] = i.p. (20 mg/Kg per Table 3), Mean of 3 mice
[11] = i.p. (20 mg/Kg per Table 3), individual animal, 20 mg/kg
[12] = i.v. 10 mg/Kg, individual animal, 10 mg/kg
[13] = male, CD-1, mouse, plasma, ip, 20 mg/kg, i.p. (20 mg/Kg per Table 3), individual animal
[14] = p.o. (gavage 20 mg/Kg per Table 3), Mean of 3 mice
[15] = p.o. (gavage 20 mg/Kg per Table 3), individual animal, 20 mg/kg

Question: For O=C(NCc1ccccc1)C(=O)[C@H](C[C@@H]1CCCNC1=O)NC(=O)[C@H](CC1CCCCC1)NC(=O)c1cc2ccccc2o1 [Example A13], which inhibition at 0.1 µM [1] is on record?
Answer: The inhibition at 0.1 µM was roughly 90%.

Question: And the “body weight change versus control group” value [2]?
Answer: Its value is “no difference of the body weight”.

Question: What about the “Inhibition of HCoV-OC43 infection and CPE” value ([3]; 1 μM, HCT-8 cells) of the same compound?
Answer: The value was “effectively block the virus infection”.

Question: What about the IC50 ([3]; Betacoronavirus 1, OC43, HCT-8, read-out: IC50 against HCoV-OC43 live virus infection) of the same compound?
Answer: The IC50 was 86 nM.

Question: And the “protective effect on target cells (CPE) at different concentrations” value ([3]; HCT-8 cells, HCoV-OC43)?
Answer: The value was “obviously dose-dependent”.

Question: And the “inhibitory effect on VSV-G-mediated pseudovirus infection” value [4]?
Answer: The value was “did not show an effective inhibitory effect”.

Question: What about the inhibition at 0.1 µM [5] of the same compound?
Answer: Its inhibition at 0.1 µM is roughly 90%.

Question: And the CC50 [6]?
Answer: Its CC50 is greater than 100000 nM.

Question: And the inhibition at 0.1 µM [7]?
Answer: The inhibition at 0.1 µM was roughly 90%.

Question: And the “CC50 relative to the detection dose” value [8]?
Answer: Its value is “more than 1000 times”.

Question: What about the “AUC INF_obs” value [9, 10] of the same compound?
Answer: Its value is 7635 ng·h/mL.

Question: What about the “AUC last (exposure for intraperitoneal injection)” value [9, 10] of the same compound?
Answer: The value was 7298 ng·h/mL.

Question: And the C max [9, 10]?
Answer: The C max was 3270 ng/mL.

Question: And the “MRT INF_obs” value [9, 10]?
Answer: Its value is 5.34 h.

Question: And the T1/2 [9, 10]?
Answer: Its T1/2 is 5.77 h.

Question: What about the “AUC INF_obs” value [9, 11] of the same compound?
Answer: Its value is 7708 ng·h/mL and 8196 ng·h/mL.

Question: And the AUC last [9, 11]?
Answer: The AUC last was 7304 ng·h/mL and 8077 ng·h/mL.

Question: What about the C max [9, 11] of the same compound?
Answer: Its C max is 3583 ng/mL and 3372 ng/mL.

Question: And the “MRT INF_obs” value [9, 11]?
Answer: The value was 6.69 h and 6.05 h and 3.28 h.

Question: And the T1/2 [9, 11]?
Answer: Its T1/2 is 5.90 h and 4.94 h.

Question: And the T max [9, 11]?
Answer: Its T max is 0.250 h and 0.050 h.

Question: What about the “AUC INF_obs” value ([9]; i.v. 10 mg/Kg, Mean of 3 mice) of the same compound?
Answer: The value was 2976 ng·h/mL.

Question: And the AUC last ([9]; i.v. 10 mg/Kg, Mean of 3 mice)?
Answer: The AUC last was 2896 ng·h/mL.

Question: And the Cl_obs ([9]; i.v. 10 mg/Kg, Mean of 3 mice)?
Answer: Its Cl_obs is 62.5 mL/min/kg.

Question: And the “MRT INF_obs” value ([9]; i.v. 10 mg/Kg, Mean of 3 mice)?
Answer: Its value is 1.88 h.

Question: What about the T1/2 ([9]; i.v. 10 mg/Kg, Mean of 3 mice) of the same compound?
Answer: Its T1/2 is 3.34 h.

Question: What about the VSS_obs ([9]; i.v. 10 mg/Kg, Mean of 3 mice) of the same compound?
Answer: The VSS_obs was 6.419 L/kg.

Question: What about the “AUC INF_obs” value [9, 12] of the same compound?
Answer: Its value is 3411 ng·h/mL and 1773 ng·h/mL and 3745 ng·h/mL.

Question: And the AUC last [9, 12]?
Answer: Its AUC last is 3300 ng·h/mL and 1734 ng·h/mL and 3652 ng·h/mL.

Question: And the Cl_obs [9, 12]?
Answer: The Cl_obs was 48.9 mL/min/kg and 94.0 mL/min/kg and 44.5 mL/min/kg.

Question: And the “MRT INF_obs” value [9, 12]?
Answer: Its value is 3.11 h and 1.13 h and 1.40 h.

Question: What about the T1/2 [9, 12] of the same compound?
Answer: Its T1/2 is 6.09 h and 2.07 h and 1.87 h.

Question: What about the VSS_obs [9, 12] of the same compound?
Answer: The VSS_obs was 9.132 L/kg and 6.389 L/kg and 3.736 L/kg.

Question: What about the bioavailability ([9]; male, CD-1, mouse, plasma, intraperitoneal, i.p. 20 mg/Kg vs i.v. 10 mg/Kg) of the same compound?
Answer: The bioavailability was 126%.

Question: What about the Tmax ([9]; male, CD-1, mouse, plasma, ip, 20 mg/kg, i.p. (20 mg/Kg per Table 3), Mean of 3 mice) of the same compound?
Answer: The Tmax was 0.183 h.

Question: And the Cmax [9, 13]?
Answer: The Cmax was 2860 ng/mL.

Question: What about the half-life [9, 13] of the same compound?
Answer: Its half-life is 6.46 h.

Question: What about the AUC(0-inf) ([9]; male, CD-1, mouse, plasma, ip, 20 mg/kg, i.p. (20 mg/Kg per Table 3), individual animal, read-out: AUC INF_obs) of the same compound?
Answer: The AUC(0-inf) was 7000 ng·h/mL.

Question: What about the AUC(0-t) ([9]; male, CD-1, mouse, plasma, ip, 20 mg/kg, i.p. (20 mg/Kg per Table 3), individual animal, read-out: AUC last) of the same compound?
Answer: The AUC(0-t) was 6510 ng·h/mL.

Question: And the bioavailability ([9]; male, CD-1, mouse, plasma, oral, p.o. 20 mg/Kg vs i.v. 10 mg/Kg)?
Answer: Its bioavailability is 7.99%.

Question: And the “AUC INF_obs” value [9, 14]?
Answer: The value was 488 ng·h/mL.

Question: And the “AUC last (oral exposure)” value [9, 14]?
Answer: The value was 463 ng·h/mL.

Question: What about the C max [9, 14] of the same compound?
Answer: Its C max is 290 ng/mL.

Question: What about the “MRT INF_obs” value [9, 14] of the same compound?
Answer: The value was 2.11 h.

Question: What about the T1/2 [9, 14] of the same compound?
Answer: Its T1/2 is 1.32 h.

Question: What about the T max [9, 14] of the same compound?
Answer: The T max was 0.250 h.

Question: And the T max ([9]; p.o. (gavage 20 mg/Kg per Table 3), individual animal)?
Answer: The T max was 0.250 h.

Question: And the “AUC INF_obs” value [9, 15]?
Answer: Its value is 700 ng·h/mL and 499 ng·h/mL and 263 ng·h/mL.

Question: And the AUC last [9, 15]?
Answer: Its AUC last is 690 ng·h/mL and 458 ng·h/mL and 241 ng·h/mL.

Question: What about the C max [9, 15] of the same compound?
Answer: The C max was 493 ng/mL and 259 ng/mL and 118 ng/mL.

Question: And the “MRT INF_obs” value [9, 15]?
Answer: The value was 1.37 h and 3.08 h and 1.88 h.

Question: What about the T1/2 [9, 15] of the same compound?
Answer: The T1/2 was 0.619 h and 2.15 h and 1.18 h.
